{"source": "EPA's ToxValDB 9.5", "system": "Mus musculus", "conditions": "oral", "key": {"[1]": {"conditions": "short-term, duration: 10 days, diet, M, C57BL/6, spleen: spleen: absolute weight + thymus: thymus: absolute weight"}, "[2]": {"conditions": "short-term, duration: 10 days, diet, M, C57BL/6, spleen: spleen: relative weight + thymus: thymus: relative weight"}, "[3]": {"conditions": "short-term, duration: 13 days, drinking water, F, C57BL/6, spleen: spleen CD8+ cells"}, "[4]": {"conditions": "short-term, duration: 14 days, gavage, M, BALB/c, relative mRNA expression of IL-1beta in spleen + thymus: apoptosis in thymus cells"}, "[5]": {"conditions": "short-term, duration: 14 days, gavage, M, BALB/c, relative mRNA expression of IL-1beta in thymus + spleen: apoptosis in spleen cells"}, "[6]": {"conditions": "short-term, duration: 14 days, gavage, M, Kunming, COX-2 in liver tissue"}, "[7]": {"conditions": "short-term, duration: 14 days, gavage, M, Kunming, CRP in liver tissue + liver: IL-6 levels"}, "[8]": {"conditions": "short-term, duration: 15 days, drinking water, F, C57BL/6, IgG antibody titer (SRBC) + IgM antibody titer (SRBC) + spleen: spleen: absolute weight + spleen: spleen: relative weight"}, "[9]": {"conditions": "short-term, duration: 15 days, drinking water, F, C57BL/6, IgM antibody titer (DNP)"}, "[10]": {"conditions": "short-term, duration: 15 days, drinking water, F, C57BL/6, IgM antibody titer (SRBC) + spleen: spleen: relative weight"}, "[11]": {"conditions": "short-term, duration: 15 days, drinking water, F, C57BL/6, spleen: spleen: absolute weight + spleen: spleen: relative weight + thymus: thymus: absolute weight + thymus: thymus: relative weight"}, "[12]": {"conditions": "short-term, duration: 15 days, drinking water, F, IgM antibody titer (SRBC)"}, "[13]": {"conditions": "short-term, duration: 21 days, drinking water, M, ICR, cytokine mRNA for IL-1 beta in spleen (relative to beta-actin) + expression of c-myc in thymus (relative to beta-actin) + mean body weight…"}, "[14]": {"conditions": "short-term, duration: 21 days, drinking water, M, ICR, cytokine mRNA for IL-6 in spleen (relative to beta-actin) + cytokine mRNA for TNF-alpha in spleen (relative to beta-actin) + expression of c…"}, "[15]": {"conditions": "short-term, duration: 28 days, gavage, M, BALB/c, testes: TNFa in testes"}, "[16]": {"conditions": "short-term, duration: 29 days, gavage, M, Crl:CD-1 (ICR) BR, IgM antibody titer (SRBC) + mean serum corticosterone + spleen: spleen: absolute weight + spleen: total number of splenocytes + thymus: …"}, "[17]": {"conditions": "short-term, duration: 29 days, gavage, M, Crl:CD-1 (ICR) BR, spleen: spleen: relative weight"}, "[18]": {"conditions": "subchronic, duration: 6 weeks, gavage, M, 129/SV, relative mRNA expression of TNF alpha/GAPDH in liver"}, "[19]": {"conditions": "subchronic, duration: 6 weeks, gavage, M, relative mRNA expression of TNF alpha/GAPDH in liver"}}, "data": [{"smiles": "O=C([O-])C(F)(F)C(F)(F)C(F)(F)C(F)(F)C(F)(F)C(F)(F)C(F)(F)F.[NH4+]", "note": "[Ammonium perfluorooctanoate]", "values": [{"measurement": "LOEL", "setting": "short-term, duration: 10 days, diet, M, C57BL/6, spleen: spleen CD19+ cells + spleen: spleen CD3+ cells + spleen: spleen CD4+ cells + spleen: spleen CD8+ cells + spleen: spleen: absolute …", "result": 0.02, "unit": "%"}, {"measurement": "LOEL", "setting": "short-term, duration: 10 days, diet, M, C57BL/6, spleen: spleen CD19+ cells + spleen: spleen CD4+ cells + spleen: spleen CD8+ cells + spleen: spleen cellularity + spleen: spleen NK1.1+ …", "result": 0.02, "unit": "%"}, {"measurement": "LOEL", "setting": "short-term, duration: 10 days, diet, M, C57BL/6, spleen: spleen: absolute weight + spleen: spleen: relative weight + spleen: total splenic DNA content + thymus: relative thymic DNA content…", "result": 0.02, "unit": "%"}, {"measurement": "NOEL", "setting": "short-term, duration: 10 days, diet, M, C57BL/6, spleen: spleen: absolute weight + thymocyte cell proliferation: G0/G1 phase 10 days recovery + thymocyte cell proliferation: G1/2 phase 2 …", "result": 0.02, "unit": "%"}, {"measurement": "LOEL", "setting": "[1]", "result": 0.01, "unit": "%"}, {"measurement": "NOEL", "setting": "[1]", "result": 0.003, "unit": "%"}, {"measurement": "LOEL", "setting": "[2]", "result": 0.01, "unit": "%"}, {"measurement": "NOEL", "setting": "[2]", "result": 0.005, "unit": "%"}, {"measurement": "NOEL", "setting": "short-term, duration: 10 days, drinking water, F, C57BL/6, spleen B220+ cells + spleen: spleen CD4+ cells + spleen: spleen CD8+ cells + spleen: spleen cellularity + spleen: spleen DN (CD4-/CD8-) …", "result": 7.5, "unit": "mg/kg-day"}, {"measurement": "NOEL", "setting": "short-term, duration: 10 days, gavage, F, C57BL/6, IgG antibody titer (SRBC) + spleen: spleen: absolute weight + spleen: spleen: relative weight + thymus: thymus: absolute weight + thymus: …", "result": 30, "unit": "mg/kg-day"}, {"measurement": "LOEL", "setting": "short-term, duration: 10 days, gavage, F, C57BL/6, IgM antibody titer (SRBC) + spleen: spleen: absolute weight + spleen: spleen: relative weight + thymus: thymus: absolute weight + thymus: …", "result": 30, "unit": "mg/kg-day"}, {"measurement": "NOEL", "setting": "short-term, duration: 13 days, drinking water, F, C57BL/6, spleen: spleen B220+ cells + spleen: spleen CD4+ cells + spleen: spleen cellularity + spleen: spleen DP (CD4+/CD8+) cells + spleen: spleen …", "result": 7.5, "unit": "mg/kg-day"}, {"measurement": "LOEL", "setting": "[3]", "result": 7.5, "unit": "mg/kg-day"}, {"measurement": "NOEL", "setting": "[3]", "result": 3.75, "unit": "mg/kg-day"}, {"measurement": "LOEL", "setting": "short-term, duration: 13 days, drinking water, F, C57BL/6, spleen: spleen DN (CD4-/CD8-) cells", "result": 3.75, "unit": "mg/kg-day"}, {"measurement": "LOEL", "setting": "short-term, duration: 14 days, gavage, M, BALB/c, change in body weight + spleen: apoptosis in spleen cells + spleen: spleen: relative weight + thymus: thymus: relative weight", "result": 5, "unit": "mg/kg-day"}, {"measurement": "NOEL", "setting": "short-term, duration: 14 days, gavage, M, BALB/c, relative mRNA expression of IL-1beta in spleen + relative mRNA expression of IL-1beta in thymus", "result": 20, "unit": "mg/kg-day"}, {"measurement": "LOEL", "setting": "[4]", "result": 10, "unit": "mg/kg-day"}, {"measurement": "NOEL", "setting": "[4]", "result": 5, "unit": "mg/kg-day"}, {"measurement": "LOEL", "setting": "[5]", "result": 20, "unit": "mg/kg-day"}, {"measurement": "NOEL", "setting": "[5]", "result": 10, "unit": "mg/kg-day"}, {"measurement": "LOEL", "setting": "[6]", "result": 5, "unit": "mg/kg-day"}, {"measurement": "NOEL", "setting": "[6]", "result": 2.5, "unit": "mg/kg-day"}, {"measurement": "LOEL", "setting": "[7]", "result": 10, "unit": "mg/kg-day"}, {"measurement": "NOEL", "setting": "[7]", "result": 5, "unit": "mg/kg-day"}, {"measurement": "LOEL", "setting": "short-term, duration: 14 days, gavage, M, Kunming, liver: Cox-2 levels + liver: CRP levels + liver: IL-6 levels", "result": 10, "unit": "mg/kg-day"}, {"measurement": "LOEL", "setting": "short-term, duration: 14 days, gavage, M, Kunming, liver: IL-6 levels + liver: TNF-alpha levels", "result": 10, "unit": "mg/kg-day"}, {"measurement": "LOEL", "setting": "[8]", "result": 25, "unit": "mg/L"}, {"measurement": "NOEL", "setting": "[8]", "result": 12.5, "unit": "mg/L"}, {"measurement": "LOEL", "setting": "[9]", "result": 1.88, "unit": "mg/kg-day"}, {"measurement": "NOEL", "setting": "[9]", "result": 0.94, "unit": "mg/kg-day"}, {"measurement": "LOEL", "setting": "[10]", "result": 30, "unit": "mg/kg-day"}, {"measurement": "NOEL", "setting": "[10]", "result": 7.5, "unit": "mg/kg-day"}, {"measurement": "NOEL", "setting": "short-term, duration: 15 days, drinking water, F, C57BL/6, spleen: spleen B220+ cells + spleen: spleen cellularity + spleen: spleen DN (CD4-/CD8-) cells + spleen: spleen DP (CD4+/CD8+) cells", "result": 7.5, "unit": "mg/kg-day"}, {"measurement": "LOEL", "setting": "short-term, duration: 15 days, drinking water, F, C57BL/6, spleen: spleen CD4+ cells + spleen: spleen CD8+ cells + spleen: spleen NK 1.1 cells", "result": 3.75, "unit": "mg/kg-day"}, {"measurement": "LOEL", "setting": "[11]", "result": 100, "unit": "mg/L"}, {"measurement": "NOEL", "setting": "[11]", "result": 50, "unit": "mg/L"}, {"measurement": "NOEL", "setting": "short-term, duration: 15 days, drinking water, F, C57BL/6, spleen: spleen: absolute weight + spleen: spleen: relative weight + thymus: thymus: relative weight", "result": 200, "unit": "mg/L"}, {"measurement": "LOEL", "setting": "short-term, duration: 15 days, drinking water, F, C57BL/6, thymus: thymus: relative weight", "result": 7.5, "unit": "mg/kg-day"}, {"measurement": "LOEL", "setting": "[12]", "result": 30, "unit": "mg/kg-day"}, {"measurement": "NOEL", "setting": "[12]", "result": 7.5, "unit": "mg/kg-day"}, {"measurement": "NOEL", "setting": "short-term, duration: 15 days, drinking water, F, spleen: spleen: relative weight + thymus: thymus: relative weight", "result": 30, "unit": "mg/kg-day"}, {"measurement": "NOEL", "setting": "short-term, duration: 15 days, gavage, F, C57BL/6, IgG antibody titer (SRBC) + spleen: spleen: absolute weight + spleen: spleen: relative weight + thymus: thymus: absolute weight + thymus: …", "result": 30, "unit": "mg/kg-day"}, {"measurement": "LOEL", "setting": "short-term, duration: 15 days, gavage, F, C57BL/6, IgM antibody titer (SRBC) + spleen: spleen: absolute weight + spleen: spleen: relative weight + thymus: thymus: absolute weight + thymus: …", "result": 30, "unit": "mg/kg-day"}, {"measurement": "NOEL", "setting": "short-term, duration: 16 days, diet, M, C57BL/6, - HRBC IgG1: 160 reciprocal serum dilution + - HRBC IgG1: 320 reciprocal serum dilution + - HRBC IgG1: 40 reciprocal serum dilution + - HRBC…", "result": 0.02, "unit": "%"}, {"measurement": "LOEL", "setting": "short-term, duration: 16 days, diet, M, C57BL/6, IgG1 antibody-producing cells (HRBC) + IgG2b antibody-producing cells (HRBC) + IgG3 antibody-producing cells (HRBC) + IgM antibody-producing…", "result": 200, "unit": "mg/kg-day"}, {"measurement": "LOEL", "setting": "short-term, duration: 16 days, diet, M, C57BL/6, IgG1 antibody-secreting cells (HRBC) + IgG1 antibody level (HRBC 1:160) + IgG1 antibody level (HRBC 1:20) + IgG1 antibody level (HRBC 1:80…", "result": 0.02, "unit": "%"}, {"measurement": "LOEL", "setting": "[13]", "result": 17.6, "unit": "mg/kg-day"}, {"measurement": "NOEL", "setting": "[13]", "result": 2.64, "unit": "mg/kg-day"}, {"measurement": "LOEL", "setting": "[14]", "result": 47.2, "unit": "mg/kg-day"}, {"measurement": "NOEL", "setting": "[14]", "result": 17.6, "unit": "mg/kg-day"}, {"measurement": "NOEL", "setting": "short-term, duration: 21 days, drinking water, M, ICR, cytokine mRNA for IL-6 in thymus (relative to beta-actin) + cytokine mRNA for TNF-alpha in thymus (relative to beta-actin) + cytokine mRNA …", "result": 47.2, "unit": "mg/kg-day"}, {"measurement": "LOEL", "setting": "short-term, duration: 21 days, drinking water, M, ICR, spleen: spleen CD8+ cells + spleen: spleen DN (CD4-CD8-) cells + spleen: spleen DP (CD4+CD8+) cells", "result": 0.49, "unit": "mg/kg-day"}, {"measurement": "LOEL", "setting": "short-term, duration: 23 days, gavage, M, Crl:CD-1 (ICR) BR, IgM antibody titer (SRBC) + spleen: spleen: absolute weight + spleen: spleen: relative weight + spleen: total number of splenocytes + thymus…", "result": 30, "unit": "mg/kg-day"}, {"measurement": "NOEL", "setting": "short-term, duration: 23 days, gavage, M, Crl:CD-1 (ICR) BR, mean serum corticosterone + spleen: incidence of spleen hematopoiesis + spleen: spleen: relative weight", "result": 30, "unit": "mg/kg-day"}, {"measurement": "LOEL", "setting": "[15]", "result": 5, "unit": "mg/kg-day"}, {"measurement": "NOEL", "setting": "[15]", "result": 1.25, "unit": "mg/kg-day"}, {"measurement": "LOEL", "setting": "[16]", "result": 10, "unit": "mg/kg-day"}, {"measurement": "NOEL", "setting": "[16]", "result": 1, "unit": "mg/kg-day"}, {"measurement": "LOEL", "setting": "[17]", "result": 1, "unit": "mg/kg-day"}, {"measurement": "NOEL", "setting": "[17]", "result": 0.3, "unit": "mg/kg-day"}, {"measurement": "LOEL", "setting": "[18]", "result": 5, "unit": "mg/kg-day"}, {"measurement": "NOEL", "setting": "[18]", "result": 1, "unit": "mg/kg-day"}, {"measurement": "LOEL", "setting": "[19]", "result": 5, "unit": "mg/kg-day"}, {"measurement": "NOEL", "setting": "[19]", "result": 1, "unit": "mg/kg-day"}]}]}
